Data from ChEMBL document CHEMBL4765227, “Hit to lead optimization of a series of N-[4-(1,3-benzothiazol-2-yl)phenyl]acetamides as monoacylglycerol lipase inhibitors with potential anticancer activity” (Eur J Med Chem, 2016).

Columns and labels:
Format in all cases: functional
Details in all cases: read-out: GI
[1] = system: CCRF-CEM; assay: Growth inhibition of human CCRF-CEM cells at 10 uM incubated for 48 hrs by sulforhodamine B assay relative to control
[2] = system: HL-60(TB); assay: Growth inhibition of human HL-60(TB) cells at 10 uM incubated for 48 hrs by sulforhodamine B assay relative to control
[3] = system: MOLT-4; assay: Growth inhibition of human MOLT-4 cells at 10 uM incubated for 48 hrs by sulforhodamine B assay relative to control
[4] = system: RPMI-8226; assay: Growth inhibition of human RPMI-8226 cells at 10 uM incubated for 48 hrs by sulforhodamine B assay relative to control
[5] = system: SR; assay: Growth inhibition of human SR cells at 10 uM incubated for 48 hrs by sulforhodamine B assay relative to control
[6] = system: A549; assay: Growth inhibition of human A549/ATCC cells at 10 uM incubated for 48 hrs by sulforhodamine B assay relative to control
[7] = system: HOP-62; assay: Growth inhibition of human HOP-62 cells at 10 uM incubated for 48 hrs by sulforhodamine B assay relative to control
[8] = system: HOP-92; assay: Growth inhibition of human HOP-92 cells at 10 uM incubated for 48 hrs by sulforhodamine B assay relative to control
[9] = system: NCI-H226; assay: Growth inhibition of human NCI-H226 cells at 10 uM incubated for 48 hrs by sulforhodamine B assay relative to control
[10] = system: COLO 205; assay: Growth inhibition of human COLO 205 cells at 10 uM incubated for 48 hrs by sulforhodamine B assay relative to control
[11] = system: HCC 2998; assay: Growth inhibition of human HCC 2998 cells at 10 uM incubated for 48 hrs by sulforhodamine B assay relative to control
[12] = system: HCT-116; assay: Growth inhibition of human HCT-116 cells at 10 uM incubated for 48 hrs by sulforhodamine B assay relative to control
[13] = system: HCT-15; assay: Growth inhibition of human HCT-15 cells at 10 uM incubated for 48 hrs by sulforhodamine B assay relative to control
[14] = system: HT-29; assay: Growth inhibition of human HT-29 cells at 10 uM incubated for 48 hrs by sulforhodamine B assay relative to control
[15] = system: SF-268; assay: Growth inhibition of human SF-268 cells at 10 uM incubated for 48 hrs by sulforhodamine B assay relative to control
[16] = system: SF-295; assay: Growth inhibition of human SF-295 cells at 10 uM incubated for 48 hrs by sulforhodamine B assay relative to control
[17] = system: SNB-19; assay: Growth inhibition of human SNB-19 cells at 10 uM incubated for 48 hrs by sulforhodamine B assay relative to control
[18] = system: SNB-75; assay: Growth inhibition of human SNB-75 cells at 10 uM incubated for 48 hrs by sulforhodamine B assay relative to control
[19] = system: U-251; assay: Growth inhibition of human U-251 cells at 10 uM incubated for 48 hrs by sulforhodamine B assay relative to control
[20] = system: LOX IMVI; assay: Growth inhibition of human LOX IMVI cells at 10 uM incubated for 48 hrs by sulforhodamine B assay relative to control
[21] = system: Malme-3M; assay: Growth inhibition of human Malme-3M cells at 10 uM incubated for 48 hrs by sulforhodamine B assay relative to control
[22] = system: M14; assay: Growth inhibition of human M14 cells at 10 uM incubated for 48 hrs by sulforhodamine B assay relative to control
[23] = system: SK-MEL-28; assay: Growth inhibition of human SK-MEL-28 cells at 10 uM incubated for 48 hrs by sulforhodamine B assay relative to control
[24] = system: SK-MEL-5; assay: Growth inhibition of human SK-MEL-5 cells at 10 uM incubated for 48 hrs by sulforhodamine B assay relative to control
[25] = system: UACC-257; assay: Growth inhibition of human UACC-257 cells at 10 uM incubated for 48 hrs by sulforhodamine B assay relative to control
[26] = system: UACC-62; assay: Growth inhibition of human UACC-62 cells at 10 uM incubated for 48 hrs by sulforhodamine B assay relative to control
[27] = system: IGROV-1; assay: Growth inhibition of human IGROV-1 cells at 10 uM incubated for 48 hrs by sulforhodamine B assay relative to control
[28] = system: OVCAR-3; assay: Growth inhibition of human OVCAR-3 cells at 10 uM incubated for 48 hrs by sulforhodamine B assay relative to control
[29] = system: OVCAR-4; assay: Growth inhibition of human OVCAR-4 cells at 10 uM incubated for 48 hrs by sulforhodamine B assay relative to control
[30] = system: OVCAR-5; assay: Growth inhibition of human OVCAR-5 cells at 10 uM incubated for 48 hrs by sulforhodamine B assay relative to control
[31] = system: NCI/ADR-RES; assay: Growth inhibition of human NCI/ADR-RES cells at 10 uM incubated for 48 hrs by sulforhodamine B assay relative to control
[32] = system: SK-OV-3; assay: Growth inhibition of human SK-OV-3 cells at 10 uM incubated for 48 hrs by sulforhodamine B assay relative to control
[33] = system: 786-0; assay: Growth inhibition of human 786-0 cells at 10 uM incubated for 48 hrs by sulforhodamine B assay relative to control
[34] = system: ACHN; assay: Growth inhibition of human ACHN cells at 10 uM incubated for 48 hrs by sulforhodamine B assay relative to control
[35] = system: CAKI-1; assay: Growth inhibition of human CAKI-1 cells at 10 uM incubated for 48 hrs by sulforhodamine B assay relative to control
[36] = system: RXF 393; assay: Growth inhibition of human RXF 393 cells at 10 uM incubated for 48 hrs by sulforhodamine B assay relative to control
[37] = system: TK-10; assay: Growth inhibition of human TK-10 cells at 10 uM incubated for 48 hrs by sulforhodamine B assay relative to control
[38] = system: PC-3; assay: Growth inhibition of human PC-3 cells at 10 uM incubated for 48 hrs by sulforhodamine B assay relative to control
[39] = system: DU-145; assay: Growth inhibition of human DU-145 cells at 10 uM incubated for 48 hrs by sulforhodamine B assay relative to control
[40] = system: MCF7; assay: Growth inhibition of human MCF7 cells at 10 uM incubated for 48 hrs by sulforhodamine B assay relative to control
[41] = system: Hs-578T; assay: Growth inhibition of human Hs-578T cells at 10 uM incubated for 48 hrs by sulforhodamine B assay relative to control
[42] = system: BT-549; assay: Growth inhibition of human BT-549 cells at 10 uM incubated for 48 hrs by sulforhodamine B assay relative to control
[43] = system: T47D; assay: Growth inhibition of human T47D cells at 10 uM incubated for 48 hrs by sulforhodamine B assay relative to control
[44] = system: MDA-MB-468; assay: Growth inhibition of human MDA-MB-468 cells at 10 uM incubated for 48 hrs by sulforhodamine B assay relative to control

O=C(Cn1nnc2ccccc21)Nc1ccc(-c2nc3ccccc3s2)cc1
inhibition of growth at 10 µM [1]: 30.3%
inhibition of growth at 10 µM [2]: 9.24%
inhibition of growth at 10 µM [3]: 38.4%
inhibition of growth at 10 µM [4]: 14.7%
inhibition of growth at 10 µM [5]: 59.9%
inhibition of growth at 10 µM [6]: 6.45%
inhibition of growth at 10 µM [7]: -1.24%
inhibition of growth at 10 µM [8]: 26.9%
inhibition of growth at 10 µM [9]: 32.5%
inhibition of growth at 10 µM [10]: -5.13%
inhibition of growth at 10 µM [11]: 6.26%
inhibition of growth at 10 µM [12]: 2.6%
inhibition of growth at 10 µM [13]: 8.49%
inhibition of growth at 10 µM [14]: -0.75%
inhibition of growth at 10 µM [15]: 7.63%
inhibition of growth at 10 µM [16]: 15.2%
inhibition of growth at 10 µM [17]: -2.9%
inhibition of growth at 10 µM [18]: -6.26%
inhibition of growth at 10 µM [19]: 10.4%
inhibition of growth at 10 µM [20]: 15.8%
inhibition of growth at 10 µM [21]: 3.07%
inhibition of growth at 10 µM [22]: 9.36%
inhibition of growth at 10 µM [23]: -1.87%
inhibition of growth at 10 µM [24]: 25.7%
inhibition of growth at 10 µM [25]: 5.5%
inhibition of growth at 10 µM [26]: 2.9%
inhibition of growth at 10 µM [27]: 2.46%
inhibition of growth at 10 µM [28]: 9.56%
inhibition of growth at 10 µM [29]: 27.8%
inhibition of growth at 10 µM [30]: -4.45%
inhibition of growth at 10 µM [31]: 3.77%
inhibition of growth at 10 µM [32]: -4.22%
inhibition of growth at 10 µM [33]: 5.01%
inhibition of growth at 10 µM [34]: -9.93%
inhibition of growth at 10 µM [35]: 14.5%
inhibition of growth at 10 µM [36]: 0.05%
inhibition of growth at 10 µM [37]: 5.23%
inhibition of growth at 10 µM [38]: 16.7%
inhibition of growth at 10 µM [39]: 26%
inhibition of growth at 10 µM [40]: 71.1%
inhibition of growth at 10 µM [41]: -11.5%
inhibition of growth at 10 µM [42]: 13.5%
inhibition of growth at 10 µM [43]: 33.1%
inhibition of growth at 10 µM [44]: 124%

O=C(Cn1ccc2ccccc21)Nc1ccc(-c2nc3ccccc3s2)cc1
inhibition of growth at 10 µM [1]: 2.97%
inhibition of growth at 10 µM [2]: 0.1%
inhibition of growth at 10 µM [3]: 5.48%
inhibition of growth at 10 µM [4]: 0%
inhibition of growth at 10 µM [5]: 4.51%
inhibition of growth at 10 µM [6]: 1.71%
inhibition of growth at 10 µM [7]: -3.42%
inhibition of growth at 10 µM [8]: -4.8%
inhibition of growth at 10 µM [9]: -2.24%
inhibition of growth at 10 µM [10]: -0.82%
inhibition of growth at 10 µM [11]: -3.48%
inhibition of growth at 10 µM [12]: -1.55%
inhibition of growth at 10 µM [13]: -10.2%
inhibition of growth at 10 µM [14]: -14.7%
inhibition of growth at 10 µM [15]: 3.37%
inhibition of growth at 10 µM [16]: -3.08%
inhibition of growth at 10 µM [17]: 1.41%
inhibition of growth at 10 µM [18]: 6.21%
inhibition of growth at 10 µM [19]: 2.41%
inhibition of growth at 10 µM [20]: 8.68%
inhibition of growth at 10 µM [21]: -8.06%
inhibition of growth at 10 µM [22]: -8.41%
inhibition of growth at 10 µM [23]: -13.7%
inhibition of growth at 10 µM [24]: 1.44%
inhibition of growth at 10 µM [25]: -0.08%
inhibition of growth at 10 µM [26]: 5.01%
inhibition of growth at 10 µM [27]: 26.2%
inhibition of growth at 10 µM [28]: -2.19%
inhibition of growth at 10 µM [29]: -2.92%
inhibition of growth at 10 µM [30]: -3.94%
inhibition of growth at 10 µM [31]: -0.33%
inhibition of growth at 10 µM [32]: -1.65%
inhibition of growth at 10 µM [33]: -3.1%
inhibition of growth at 10 µM [34]: -10.9%
inhibition of growth at 10 µM [35]: -0.29%
inhibition of growth at 10 µM [36]: -12.6%
inhibition of growth at 10 µM [37]: -3.65%
inhibition of growth at 10 µM [38]: 2.02%
inhibition of growth at 10 µM [39]: -0.67%
inhibition of growth at 10 µM [40]: 61.8%
inhibition of growth at 10 µM [41]: 2.29%
inhibition of growth at 10 µM [42]: -5.34%
inhibition of growth at 10 µM [43]: 9.38%
inhibition of growth at 10 µM [44]: 150%
